# According to PMC11302729, “Repurposing Hsp90 inhibitors as antimicrobials targeting two-component systems identifies compounds leading to loss of bacterial membrane integrity” (Microbiology Spectrum, 2024):
# Several values for one entry are separate records, joined by “and”; a condition that tells them apart may be missing. Equal entries are not always repeated.
# System: Staphylococcus aureus str. Newman
# Test: Minimal inhibitory concentration (microdilution) against S. aureus
# Format: cell-based
# Details: Staphylococcus aureus, NEWMAN; Fig 2
# Description: (§1) Staphylococcus aureus str. Newman, Enterococcus faecalis vanA (strain E0155), Enterococcus faecium vanA (strain E1654), Escherichia coli ATCC 25922, Escherichia coli D21f2 with a truncated LPS barrier, Escherichia coli JW5503 (ΔtolC) ([49]), Pseudomonas aeruginosa ATCC 27853, and Pasteurella haemolytica ATCC 29701 were grown in Mueller-Hinton Broth (MHB) (Oxoid, Basingstoke, UK) and incubated at 37°C.
# (§2) The minimal inhibitory concentration was determined using the microdilution method following the guidelines of the European Committee on Antimicrobial Susceptibility Testing ([50]). Briefly, a series of twofold dilutions in MHB of each compound were made in a 96-well plate, with final concentrations ranging from 50 to 0.39 µg/mL in 100 µL final volume per well. A hundred microliters of 1:100 dilution of an overnight culture of the correspondent bacteria in MHB was added to each well. Plates were incubated for 18 hours at 37°C. MIC was recorded as the lowest concentration where no growth was detected as measured by optical density at 600 nm (OD600) using Spectramax M5 (Molecular Devices LLC, San Jose, CA, USA). […] Wells containing bacteria with or without 1% DMSO and medium alone were included as controls in every plate.
row,SMILES,MIC
1,Oc1ccc(-c2onc(C(F)(F)F)c2-c2ccc(Cl)cc2)c(O)c1 [DPP-11],3.12 µg/mL
2,FC(F)(F)c1n[nH]c(-c2ccccc2)c1-c1ccc(Cl)cc1 [DPP-21],1.56 µg/mL
3,Oc1ccccc1-c1[nH]nc(C(F)(F)F)c1-c1ccc(Cl)cc1 [DPP-22],1.56 µg/mL

# Same assay, conditions: Staphylococcus aureus, NEWMAN; Fig 2, value in parentheses
row,SMILES,MIC
1,Oc1ccc(-c2onc(C(F)(F)F)c2-c2ccc(Cl)cc2)c(O)c1 [DPP-11],8.76 µM
2,FC(F)(F)c1n[nH]c(-c2ccccc2)c1-c1ccc(Cl)cc1 [DPP-21],4.8 µM
3,Oc1ccccc1-c1[nH]nc(C(F)(F)F)c1-c1ccc(Cl)cc1 [DPP-22],4.59 µM

# Same assay, conditions: Table ST3
row,SMILES,MIC S. aureus
1,Oc1ccc(-c2onc(C(F)(F)F)c2-c2ccc(Cl)cc2)c(O)c1 [DPP-11],3.12 µg/mL
2,FC(F)(F)c1n[nH]c(-c2ccccc2)c1-c1ccc(Cl)cc1 [DPP-21],1.56 µg/mL
3,Oc1ccccc1-c1[nH]nc(C(F)(F)F)c1-c1ccc(Cl)cc1 [DPP-22],1.56 µg/mL

# Same assay, conditions: Table ST3, value in parentheses
row,SMILES,MIC
1,Oc1ccc(-c2onc(C(F)(F)F)c2-c2ccc(Cl)cc2)c(O)c1 [DPP-11],8.76 µM
2,FC(F)(F)c1n[nH]c(-c2ccccc2)c1-c1ccc(Cl)cc1 [DPP-21],4.8 µM
3,Oc1ccccc1-c1[nH]nc(C(F)(F)F)c1-c1ccc(Cl)cc1 [DPP-22],4.59 µM

# System: not listed separately
# Test: in vitro
# Format: cell-based
# Details: human
# Description: (§3) HEK293 cells and the human hepatocellular carcinoma cells (HepG2) were routinely cultured in 75-cm^2 culture flasks (Corning Incorporated) on high-glucose Dulbecco’s modified Eagle medium (DMEM) containing glutaMax and phenol red (Gibco) supplemented with 1% penicillin/streptomycin (Gibco) and 10% fetal bovine serum (FBS) (Gibco). Cells were maintained at 37°C and 5% CO2.
# (§4) Cytotoxicity assays with HEK293 and HepG2 cells were performed in 96-well plates seeded with 5 × 10^4 cells/well and incubated for 24 hours to reach 80%–90% confluency. Exterior wells were filled with only medium to prevent evaporation. Culture medium was removed from the cells, and 100 µL of exposure medium [high-glucose DMEM without phenol red (Gibco)] was added to avoid a potential interaction between FBS components or antibiotics and tested compounds. A twofold dilution series of compounds in exposure medium (range 100–3.2 μg/mL) was made in a separate 96-well plate, and 100 µL of each of these dilutions was added to the assay plates for 24 hours at 37°C in the presence of 5% CO2. Control wells contained cells with DMEM, DMEM + 1% DMSO (vehicle control), or DMEM + 20% DMSO. Wells without cells were also included as negative control. After exposure, the medium was replaced with 100 µL 10% Alamar Blue (Invitrogen) in exposure medium. After 45 min incubation at 37°C and 5% CO2, fluorescence was measured on a Spectramax M5 plate reader at λex = 541 nm, λem = 590 nm. Cell viability compared with the vehicle control was calculated, and inhibition curves for each compound were fitted (non-linear curve fit, four variables, bottom constrained = 0) in Prism 9 (GraphPad Software, San Diego, USA).
row,SMILES,CC50 at 24 h
1,Oc1ccc(-c2onc(C(F)(F)F)c2-c2ccc(Cl)cc2)c(O)c1 [DPP-11],3.41 µg/mL and 9.61 µM
2,Oc1ccccc1-c1[nH]nc(C(F)(F)F)c1-c1ccc(Cl)cc1 [DPP-22],2.89 µg/mL and 8.5 µM

# System: HEK293 cells
# Test: in vitro
# Format: cell-based
# Details: LC50/MIC (HEK293 / S. aureus)
# Description: as §3, §4
row,SMILES,Selectivity Index
1,Oc1ccc(-c2onc(C(F)(F)F)c2-c2ccc(Cl)cc2)c(O)c1 [DPP-11],1.10
2,FC(F)(F)c1n[nH]c(-c2ccccc2)c1-c1ccc(Cl)cc1 [DPP-21],4.56
3,Oc1ccccc1-c1[nH]nc(C(F)(F)F)c1-c1ccc(Cl)cc1 [DPP-22],1.85

# System: Enterococcus faecium vanA (strain E1654)
# Test: MIC (microdilution) against E. faecium
# Format: cell-based
# Details: Enterococcus faecium, read-out: MIC E. faecium
# Description: as §1, §2
row,SMILES,MIC
1,Oc1ccc(-c2onc(C(F)(F)F)c2-c2ccc(Cl)cc2)c(O)c1 [DPP-11],12.5 µg/mL
2,FC(F)(F)c1n[nH]c(-c2ccccc2)c1-c1ccc(Cl)cc1 [DPP-21],12.5 µg/mL
3,Oc1ccccc1-c1[nH]nc(C(F)(F)F)c1-c1ccc(Cl)cc1 [DPP-22],12.5 µg/mL

# System: Enterococcus faecalis vanA (strain E0155)
# Test: MIC (microdilution) against E. faecalis
# Format: cell-based
# Details: Enterococcus faecalis, read-out: MIC E. faecalis
# Description: as §1, §2
row,SMILES,MIC
1,Oc1ccc(-c2onc(C(F)(F)F)c2-c2ccc(Cl)cc2)c(O)c1 [DPP-11],12.5 µg/mL
2,FC(F)(F)c1n[nH]c(-c2ccccc2)c1-c1ccc(Cl)cc1 [DPP-21],12.5 µg/mL
3,Oc1ccccc1-c1[nH]nc(C(F)(F)F)c1-c1ccc(Cl)cc1 [DPP-22],12.5 µg/mL

# System: Pasteurella haemolytica ATCC 29701
# Test: MIC (microdilution) against P. haemolytica
# Format: cell-based
# Details: Mannheimia haemolytica, ATCC29701, read-out: MIC P. haemolytica, Table ST1
# Description: as §1, §2
row,SMILES,MIC
1,Oc1ccc(-c2onc(C(F)(F)F)c2-c2ccc(Cl)cc2)c(O)c1 [DPP-11],62.5 µg/mL

# Same assay, conditions: Mannheimia haemolytica, ATCC29701; Table ST1; read-out: MIC P. haemolytica
row,SMILES,MIC
1,FC(F)(F)c1n[nH]c(-c2ccccc2)c1-c1ccc(Cl)cc1 [DPP-21],12.5 µg/mL
2,Oc1ccccc1-c1[nH]nc(C(F)(F)F)c1-c1ccc(Cl)cc1 [DPP-22],12.5 µg/mL

# System: Pseudomonas aeruginosa ATCC 27853
# Test: MIC (microdilution) against P. aeruginosa
# Format: cell-based
# Details: Pseudomonas aeruginosa, ATCC27853; Table ST1; read-out: MIC P. aeruginosa
# Description: as §1, §2
row,SMILES,MIC
1,Oc1ccc(-c2onc(C(F)(F)F)c2-c2ccc(Cl)cc2)c(O)c1 [DPP-11],> 250 µg/mL
2,FC(F)(F)c1n[nH]c(-c2ccccc2)c1-c1ccc(Cl)cc1 [DPP-21],> 250 µg/mL
3,Oc1ccccc1-c1[nH]nc(C(F)(F)F)c1-c1ccc(Cl)cc1 [DPP-22],> 250 µg/mL

# System: Escherichia coli ATCC 25922
# Test: MIC (microdilution) against E. coli
# Format: cell-based
# Details: Escherichia coli, ATCC25922; Table ST1; read-out: MIC E. coli
# Description: as §1, §2
row,SMILES,MIC
1,Oc1ccc(-c2onc(C(F)(F)F)c2-c2ccc(Cl)cc2)c(O)c1 [DPP-11],> 250 µg/mL
2,FC(F)(F)c1n[nH]c(-c2ccccc2)c1-c1ccc(Cl)cc1 [DPP-21],> 250 µg/mL
3,Oc1ccccc1-c1[nH]nc(C(F)(F)F)c1-c1ccc(Cl)cc1 [DPP-22],> 250 µg/mL

# System: Escherichia coli JW5503 (ΔtolC)
# Test: MIC (microdilution) against E. coli JW5503
# Format: cell-based
# Details: Escherichia coli, read-out: MIC E. coli JW5503
# Text: (§5) We also tested the inhibitory activity of compounds in two different E. coli mutants: (i) E. coli JW5503 that lacks TolC efflux pumps and (ii) E. coli D21f2 that has a defective LPS inner core increasing permeability of the outer membrane. E. coli D21f2 has a slightly higher susceptibility to DPP compounds than E. coli ATCC25922.
# as §1, §2
row,SMILES,MIC
1,Oc1ccc(-c2onc(C(F)(F)F)c2-c2ccc(Cl)cc2)c(O)c1 [DPP-11],1.56 µg/mL
2,FC(F)(F)c1n[nH]c(-c2ccccc2)c1-c1ccc(Cl)cc1 [DPP-21],1.56 µg/mL
3,Oc1ccccc1-c1[nH]nc(C(F)(F)F)c1-c1ccc(Cl)cc1 [DPP-22],1.56 µg/mL

# System: Escherichia coli D21f2 with a truncated LPS barrier
# Test: MIC (microdilution) against E. coli D21f2
# Format: cell-based
# Details: read-out: MIC E coli D21f2
# Text: as §5, §1, §2
row,SMILES,MIC
1,Oc1ccc(-c2onc(C(F)(F)F)c2-c2ccc(Cl)cc2)c(O)c1 [DPP-11],25 µg/mL
2,FC(F)(F)c1n[nH]c(-c2ccccc2)c1-c1ccc(Cl)cc1 [DPP-21],> 250 µg/mL
3,Oc1ccccc1-c1[nH]nc(C(F)(F)F)c1-c1ccc(Cl)cc1 [DPP-22],25 µg/mL

# System: S. aureus str. Newman
# Test: Membrane permeability using SYTOX-Green, flow cytometry
# Format: cell-based
# Details: 0.5× MIC, 5 min exposure
# Description: S. aureus str. Newman was grown to exponential phase (OD600 = 0.4) in MHB media. […] Nisin (Sigma-Aldrich) and novobiocin (Sigma-Aldrich) were used as positive and negative controls for membrane permeabilization, and stained and unstained untreated controls were also included in each assay. After exposure, samples were centrifuged at 4,000 r.p.m. for 5 min and resuspended in PBS. Bacteria were dyed by adding the fluorescent nuclear stain SYTOX Green (Molecular Probes, Invitrogen) to a final concentration of 0.5 µM and incubating for 5 min in the dark. Samples were centrifuged again and resuspended with PBS to remove unbound stain. Three hundred microliters of each sample was transferred to a clean well in a 96-well clear-bottom plate (Corning Incorporated). Fluorescence was measured in CytoFLEX flow cytometer (Beckman Coulter, Brea, CA, USA) using the green (FITC) channel with the excitation wavelength at 488 nm. Overlay histograms were created with CytExpert Software (Beckman Coulter, Brea, CA, USA).
row,SMILES,% FITC stained bacteria 0.5 xMIC
1,Oc1ccc(-c2onc(C(F)(F)F)c2-c2ccc(Cl)cc2)c(O)c1 [DPP-11],24.77%
2,FC(F)(F)c1n[nH]c(-c2ccccc2)c1-c1ccc(Cl)cc1 [DPP-21],31.51%

# Same assay, conditions: 1× MIC, 5 min exposure
row,SMILES,% FITC stained bacteria 1 xMIC
1,Oc1ccc(-c2onc(C(F)(F)F)c2-c2ccc(Cl)cc2)c(O)c1 [DPP-11],28.12%
2,FC(F)(F)c1n[nH]c(-c2ccccc2)c1-c1ccc(Cl)cc1 [DPP-21],35.84%

# Same assay, conditions: 2× MIC, 5 min exposure
row,SMILES,% FITC stained bacteria 2 xMIC
1,Oc1ccc(-c2onc(C(F)(F)F)c2-c2ccc(Cl)cc2)c(O)c1 [DPP-11],57.97%
2,FC(F)(F)c1n[nH]c(-c2ccccc2)c1-c1ccc(Cl)cc1 [DPP-21],51.03%

# Same assay, conditions: if considered to cause membrane damage to S. aureus
row,SMILES,Membrane damage
1,Oc1ccc(-c2onc(C(F)(F)F)c2-c2ccc(Cl)cc2)c(O)c1 [DPP-11],YES
2,FC(F)(F)c1n[nH]c(-c2ccccc2)c1-c1ccc(Cl)cc1 [DPP-21],YES

# System: sheep red blood cells
# Test: Haemolysis assay
# Format: cell-based
# Details: if considered to cause haemolysis to red blood cells
# Description: The hemolysis assay was adapted from the study by Evans et al. ([65]). Briefly, sheep RBC 10% washed pooled cells in PBS (Rockland Immunochemicals, Limerick, PA, USA) were diluted 1:5 to give a final concentration of 2% RBCs in PBS. […] A non-treated control, 1% DMSO (vehicle control), and complete cell lysis control (Triton-X 2%) were included in each assay. After exposure samples were centrifuged at 4°C at 1,000 g for 15 min and 100 µL of supernatant transferred to a clean well in a 96-well, clear, flat-bottom plate (Corning Incorporated). Released hemoglobin was measured by absorption at 540 nm using a Spectramax M5 plate reader. The experiments were performed in quadruplicate. The percentage of hemolysis was calculated as follows:
# Hemolysis=A540nm,testcondition−A540nm,DMSOcontrol/A540nm,TritonXControl−A540nm,DMSOcontrol
row,SMILES,Haemolysis
1,Oc1ccc(-c2onc(C(F)(F)F)c2-c2ccc(Cl)cc2)c(O)c1 [DPP-11],YES
2,FC(F)(F)c1n[nH]c(-c2ccccc2)c1-c1ccc(Cl)cc1 [DPP-21],YES
3,Oc1ccccc1-c1[nH]nc(C(F)(F)F)c1-c1ccc(Cl)cc1 [DPP-22],YES
